Reference: PubChem BioAssay AID732 (Emory University Molecular Libraries Screening Center, 2007)
Values joined by “and” are separate entries in the source; they are usually repeats but may differ in a detail not shown here. Identical values can stand only once. Active and inactive are the calls of the source. How the calls were made is not given here. Peptide text beside a SMILES is read from it. * marks the point of attachment. Cbz = O=C(OCc1ccccc1)*

System: in vivo angiogenesis, blood vessel count
Assay: reduction of blood vessel formation in vivo – HTS, in vivo study (AID 732);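 further: zebrafish embryos dosed at one day post fertilization; 0% = reference inhibitor and 100% = plate mean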
Details: hits give low values;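 tested at 30 µM in the well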

SMILES | vessel count % control
CC(C)N(CCC(=O)c1ccc2ccccc2c1)Cc1ccccc1 | 0% (inactive)
COc1cc2c(cc1OC)[C@@H](c1ccccc1)CN(C)CC2 | 91.5% (inactive)
CC(C)[C@H](NC(=O)OCc1ccccc1)C(=O)N[C@H](C=O)Cc1ccccc1 (Cbz-Val-Phe-aldehyde) | 107% (inactive)
CN1CCN2c3ccccc3Cc3ccccc3C2C1 (centres undefined) | 72.3% (inactive)
CCCCC1C(=O)N(c2ccccc2)N(c2ccccc2)C1=O | 93.9% (inactive)
O=c1c(-c2ccc(O)cc2)coc2cc(O)cc(O)c12 | 107% (inactive)
CC(=O)O[C@H]1CC2(C)[C@@H](C[C@@H](O)[C@H]3[C@@]4(C)CC[C@@H](O)[C@@H](C)[C@@H]4CC[C@@]32C)C1=C(CCC=C(C)C)C(=O)O (some centres undefined) | 100% (inactive)
C#CCN1C(C)=C(C(=O)OC)C(c2cccc([N+](=O)[O-])c2)C(C(=O)OCC)=C1C (centres undefined) | 132% (inactive)
O=c1[nH]oc2c1CCNC2 | 103% (inactive)
Ic1ccccc1CNC1C2CCN(CC2)C1C(c1ccccc1)c1ccccc1 (centres undefined) | 103% (inactive)
CN[C@@H](C)[C@H](O)c1ccccc1 | 91.4% (inactive)
CC1=C(/C=C/C(C)=C/C=C/C(C)=C\C(=O)O)C(C)(C)CCC1 | 76.1% (inactive)
CCCCCCCCCCCCCCC[C@H](O)[C@H](N)CO | 101% (inactive)
Nc1nc2c(nc(Br)n2C2OC3COP(=O)(O)O[C@@H]3C2O)c(=O)[nH]1 (some centres undefined) | 110% (inactive)
Oc1ccc(C2CNCc3sccc32)cc1O (centres undefined) | 94.7% (inactive)
CCCCc1ccc(C(=O)O)nc1 | 115% (inactive)
CC(=O)C(C)=O | 99.7% (inactive)
CC(=O)N[C@@H](CS)C(=O)O | 96.5% (inactive)
COCC(=O)O[C@]1(CCN(C)CCCc2nc3ccccc3[nH]2)CCc2cc(F)ccc2[C@@H]1C(C)C | 90.9% (inactive)
NCC(CC(=O)O)c1ccc(Cl)cc1 (centres undefined) | 100% (inactive)

SMILES | vessel count % control
O=C(O)[C@@H]1C[C@H](C(=O)O)N1 | 59.7% (inactive)
C/C(=C\c1ccc(C(=O)O)cc1)c1ccc2c(c1)C(C)(C)CCC2(C)C | 70% (inactive)
CCCC1O[C@@H]2C[C@H]3[C@@H]4CCC5=CC(=O)C=C[C@]5(C)[C@H]4[C@@H](O)C[C@]3(C)[C@]2(C(=O)CO)O1 (some centres undefined) | 120% (inactive)
CC1(C)NC(=O)N(c2ccc([N+](=O)[O-])c(C(F)(F)F)c2)C1=O | 91.7% (inactive)
COCCCC/C(=N\OCCN)c1ccc(C(F)(F)F)cc1 | 145% (inactive)
NN=C(N)N | 92.2% (inactive) and 80.5% (inactive)
CC(O)C(C)OC(=O)[C@@H]1C[C@@H]2c3cccc4c3c(cn4C(C)C)C[C@H]2N(C)C1 (some centres undefined) | 90.9% (inactive)
O=c1c(O)c(-c2ccc(O)cc2O)oc2cc(O)cc(O)c12 | 108% (inactive)
Cc1cccc2c(C3=Nc4ccccc4C3=O)c(O)[nH]c12 | 26.6%
NC(=NCCC[C@H](N)C(=O)O)NO | 99% (inactive)
CCC(NC(C)C)C(O)c1ccc(O)c(O)c1 (centres undefined) | 85.9% (inactive)
COc1ccccc1OCC(O)CN1CCN(CC(=O)Nc2c(C)cccc2C)CC1 (centres undefined) | 97.9% (inactive)
N=S(=O)(O)Cc1noc2ccccc12 | 88.2% (inactive)
Cc1o[nH]c(=O)c1CC(N)C(=O)O (centres undefined) | 104% (inactive)
Fc1ccc(C(c2ccc(F)cc2)N2CCN(C/C=C/c3ccccc3)CC2)cc1 | 91.5% (inactive)
O=C(O)c1cc(=O)c2ccccc2[nH]1 | 97.4% (inactive)
CC1(C)CCC=[N+]1[O-] | 85.7% (inactive)
O=S(=O)(c1cccc2c(Cl)cccc12)N1CCCNCC1 | 109% (inactive)
CCCN(CCC)C(=O)Cc1c(-c2ccc(Cl)cc2)nc2c(Cl)cc(Cl)cn12 | 89.9% (inactive)
